The IC50 is the point on the concentration scale where inhibition reaches its midpoint.

Read-outs that look alike come from different tables or passages of the source.

Results on three compounds are retold here after patent US20250213593A1, “Use of Derivatives based on Sarsasapogenin Structure and Pharmaceutical Compositions thereof” (BEIJING PHYTOVENT PHARMACEUTICAL TECHNOLOGY CO., LTD., priority 2022, published 2025).

For experiment [1], the system named is U2932 (human diffuse large B-cell lymphoma cells). The experiment can be described thus: Cell proliferation assay, U2932. It counts as cell-based. Conditions: U2932, 72 h. As to the method: (§1) • Experimental and analytical method: cells were inoculated into a 96-well cell culture plate with a lid at a maximum concentration of 10 μM for a test compound, and diluted in three folds to a series of test concentrations, and cells were incubated at 37° C., 5% CO2 for 72 h. The concentration of DMSO was 0.5%, 100 μl of medium was taken from each well. 100 μl of reagent (Celltitute Glo Assay Kit) was added to each well, and a flat plate was shaken on a plate shaker (protected from light) for 2 min. A culture plate was incubated (protected from light) at room temperature for 30 min. Chemiluminescence values were recorded by a multi-plate plate reader, and the experimental results were as follows:
(§2) U937 (histiocytic lymphoma cells), OCI-LY3 (human diffuse large B-cell lymphoma cells), U2932 (human diffuse large B-cell lymphoma cells), and HT cells (human mixed lymphoma cells) were analyzed in the table for experimental analysis of cell proliferation.

The subject of experiment [2] is U937 (histiocytic lymphoma cells). The experiment is described as follows: Cell proliferation assay, U937. The conditions noted are these: Homo sapiens, U-937, 72 h. In kind it is cell-based. As to the method:
as §1, §2

For experiment [3], the system named is Lepr gene mutant (DB) mice. The experiment is described as follows: Excessive urination in DB animals. It counts as in vivo, mouse. Conditions: 80 mpk by gavage once every two days, 5 weeks; vs model group. From the text: • Experimental and analytical method: leptin receptor gene (OB-R) was also known as diabetes gene (db), leptin receptor (Lepr) is closely related to obesity, hypertension, diabetes, lipid metabolism disorders, etc. The courses of these diseases are greatly influenced by the genetic background. Topical insulin can not control the increase in blood glucose and gluconeogenesis levels in the liver. Gene editing technologies and embryo injection technologies were used to construct Lepr gene mutant mice. […] The urine volume of each mouse of this strain was as huge as hundreds of times that of normal mice, so patients with frequent urination could be simulated. The experiment was divided into three groups, i.e., a model group (non-administrated, onset mice with high urine volume), a control group (non-administrated, non-onset normal mice), and an experimental group (administrated Embodiment 1A, 80 mpk, by gavage once every two days), with 2 mice in the control group, and 3 mice in the other two groups. The small molecule used was Embodiment 1A. We observed the urine volume in cages of mice housed in single cages starting from Week 8 and after 5 weeks of continuous drug treatment. […] Experiment 32. Cardiovascular Inflammation Alleviation Effect on APOE Mutant Mice Fed with High-Fat Diets.

In experiment [4] the test system is OCI-LY3 (human diffuse large B-cell lymphoma cells). The experiment is described as follows: Cell proliferation assay, OCI-LY3. In kind it is cell-based. The conditions noted are these: Homo sapiens, OCI-Ly3, 72 h. As to the method: as §1, §2
Experiment [5] deals with HT cells (human mixed lymphoma cells). The experiment can be described thus: Cell proliferation assay, HT. In kind it is cell-based. Conditions: Homo sapiens, HT, 72 h. As to the method:
as §1, §2

The subject of experiment [6] is hippocampal neurons. The experiment can be described thus: L-cysteine-induced neuronal excitotoxicity. It counts as cell-based, SD rats. The conditions noted are these: compound 1 μM, 24 h before inducer. As to the method: Experimental and analytical method: before the experiment, a 24-well cell culture plate was pretreated with Poly-D-lysine and placed in a cell incubator at 37° C. and 5% CO2 overnight. SD rats, 18 days pregnant, were ordered, brains of fetal rats (E18-19) were dissected, and hippocampal neurons in the brains were subjected to primary culture in a neuronal medium using a 24-well plate, and then cultured by a serum-free medium. The hippocampal neurons were cultured in a cell incubator at 37° C., 5% CO2 for 19 days (DIV19), then added with a compound to be tested (a final concentration of 1 μM) and a positive control AP5 [(2R)-amino-5-phosphonopentanoic acid(phosphonatopentanoate)] (a final concentration of 100 μM), cultured for 24 h, and then added with L-Cystine (400 μM) and NaHCO3 (10 mM). After 18 h, Hoechst3342 (2.5 μg/ml) was added for cell staining. The cells were placed in the incubator and cultured for 15 min, and photographed using the high-content fluorescence microscope, wherein 6 random non-overlapping fields were photographed for each duplicate well, and the total number of neurons and the number of dead neurons were counted with software Image J. The obtained data was used to determine whether there was a difference between a drug treatment group and a control group.
Compound treatment: 32 small molecule compounds in Embodiment 1 to Embodiment 19A were diluted with DMSO to a 1 mM mother solution; and 1 μL of mother solution was added to 1 ml of culture solution per well in a 24-well plate to a final concentration of 1 μM, wherein a positive control compound was […] of AP5 (100 mM mother solution), and a negative control was 1 μl of DMSO.

Experiment [7] has as its system transgenic AD mice (C57BL/6J background). The experiment can be described thus: Water maze test of AD mice. The conditions noted are these: 6 months after administration.
Experiment [8] has the same test system. The experiment is described as follows: Light/dark box test of AD mice. In kind it is in vivo, mouse. Conditions: 6 months after administration. The source says:
The principle of the light/dark box test is: the mice have a natural tendency to darkness; and after the mice was put into a light box, the mice would spontaneously enter a connected dark box. However, in this experiment, the dark box was equipped with an electrical stimulation mechanism, and the mice would be shocked when they entered the dark box.

Experiment [9] shares this test system. The experiment is described as follows: Nesting behaviors of AD mice. Conditions: administered from 2 months of age; tested 3 and 6 months after administration. In kind it is in vivo, mouse. The source says: One symptom of AD patients was the inability to take care of themselves, while nesting behaviors reflected the self-care level of the mice. At the beginning of the experiment, 10 pieces of rectangular paper were placed neatly in mouse cages in order. Normal mice would tear up pieces of paper and build nests, while mice with severe AD symptoms would not tear up pieces of paper and build nests.

Experiment [10] relates to Mia paca-2 cells. The experiment is described as follows: In-vitro killing of pancreatic cancer cells (CellTiter-Glo). In kind it is cell-based. The conditions noted are these: 11 small molecules, max 10 uM, 3-fold dilution. As to the method:
• Experimental and analytical method: we used Mia paca-2 cells as a research object. This cell line was a pancreatic cancer cell line and was widely used in an antimicrobial susceptibility experiment. We performed the antimicrobial susceptibility experiment on 11 small molecules, with a maximum concentration of 10 uM and a 3-fold dilution, resulting in a concentration gradient of seven points. Cell viability assay was performed using CellTiter-Glo, and a dosage-response curve was plotted using GraphPad Prism. A resulting antimicrobial susceptibility curve was shown in the figure below. • Results: the antimicrobial susceptibility curve was shown in FIG. 53, where a lower IC50 value indicates a higher sensitivity to the small molecule.

As to `C[C@H]1CC[C@@]2(OC1)O[C@H]1C[C@H]3[C@@H]4CC[C@@H]5C[C@@H](NC(=O)CCN6CCN(C)CC6)CC[C@]5(C)[C@H]4CC[C@]3(C)[C@H]1[C@@H]2C` [Embodiment 1A], the IC50 is 620 nM in [1]; 1.8 µM in [2] (low sugar, read-out: U937 (IC50, uM) Low sugar); 2.13 µM in [2] (normal sugar, read-out: U937 (IC50, uM) Normal sugar); 1900 nM in experiment [4]; 1640 nM in experiment [5]. The “urine wetting area in mouse cage” value in experiment [3] is listed as “significantly reduced”. The “protective effects on L-Cystine (400 μM)-induced neuronal excitotoxicity” value in experiment [6] was “protective effects”.
Consider `CCN1CCN(C2CCN(C(=O)CC(=O)NC3CC[C@]4(C)C5CC[C@]6(C)[C@@H]7[C@H](C[C@H]6[C@@H]5CC[C@@H]4C3)O[C@]3(CC[C@H](C)CO3)[C@H]7C)CC2)CC1` (stereo partly drawn) [Embodiment 25], for which, in [7], the “dwell time in a target quadrant” value was “most obvious” and the “number of platform shuttles” value is on record as “most obvious”. Also, in experiment [8], the “memory on electric shock (latency before entering the dark box)” value was “could effectively enhance the memory”. The nesting behavior score result in experiment [9] is on record as “most obvious”.
`C[C@H]1CC[C@@]2(OC1)O[C@H]1C[C@H]3[C@@H]4CC[C@@H]5C[C@@H](NC(=O)CC(=O)N6CCN(C7CCN(C)CC7)CC6)CC[C@]5(C)C4CC[C@]3(C)[C@H]1[C@@H]2C` (stereo partly drawn) [Embodiment 26A]: the “sensitivity of Mia paca-2 cells (IC50 comparison)” value in experiment [10] is listed as “highest sensitivity”.
